Measurements reported in publication PMC4880976, “Pharmacologic rationale for the NK1R antagonist, aprepitant as adjunctive therapy in HIV” (Journal of Translational Medicine, 2016).
Where no end group is shown, it is not given here.

Tests used:
[1] = cited from earlier work
[2] = Table 1, literature values, no reference given; cited from earlier work
[3] = system: CD163 cleavage in human monocytes; assay: sCD163 release from human monocytes, ELISA; type: cell-based; conditions: SP, time- and dose-dependent, p < 0.001
Method: sCD163 was measured by ELISA (Trillium Diagnostics, Brewer, Maine, USA) according to manufacturer’s recommendations.
Fig. 7 SP induces cleavage of CD163 in monocytes. sCD163 was measured by ELISA in the supernatant of freshly isolated human monocytes treated with SP and aprepitant as indicated. a Time course of cells treated with varying doses of SP as indicated. *p < 0.001 control versus 5 and 10 μM of SP. b Cells were pre-incubated with aprepitant (10 μM) for 30 min and then treated with SP (5 μM) for 60 min. *p < 0.001 SP versus control, p = 0.004 SP versus SP + aprepitant. Results are presented as mean ± SD from three independent experiments

[4] = system: PD-1 expression on CD3+CD4+ cells; assay: PD-1 expression on CD4+ T-cells in PBMC, flow cytometry; type: cell-based, human
Method: (§1) For cytokine and PD-1 assessment experiments freshly isolated peripheral blood mononuclear cell (PBMC) purchased from the Human Immunology Core Facility of The University of Pennsylvania School of Medicine (Philadelphia, PA) were cultured in RPMI medium supplemented with 10 % FBS overnight. Some cultures were treated with SP (10 µM) aprepitant (10 µM) or DMSO (0.001 %, vehicle for aprepitant). Cytokine concentrations were measured in supernatants using multiplex assay 24 h after SP/aprepitant treatment (see below). For PD-1 expression SP and aprepitant were added at day 0 and PD-1 expression was monitored daily for up to 8 days using flow cytometry.
Fig. 6 Aprepitant blocks SP induced PD-1 expression on CD4+ T-cells. PBMC were treated for 7 days with SP and aprepitant as indicated. PD-1 expression was measured by flow cytometry on CD3+CD4+ cells and expressed as percentage of PD-1 positive cells. a Results from representative experiment are shown. First two columns show gaiting strategy. […] Median (spread): control 14.7 (11.1), SP treated 38.4 (60.6), SP + aprepitant treated 7.8 (6.0) TEXT PRINTED IN THE PICTURE: (a) SP: PD1+ 67.1 | (a) SP + aprepitant: PD1+ 9.53 DOUBTS OF THE COPYIST ABOUT THIS PICTURE: SP + aprepitant, PD1+ 9.53: the sign after PD1 looks like '+' or '−' because it touches the gate line / SP + aprepitant, 9.53: small print, so the digits 9, 5 and 3 are not fully certain / The rows 'no staining' (PD1+ 0.079) and 'control' (PD1+ 11.4) were left out because they are not substances

human PBMC = assay: SP dependent cytokine and chemokine production by PBMC, multiplex assay; type: cell-based; conditions: SP 10 µM, 24 h
Method: as §1
Concentrations of pro-inflammatory cytokines and chemokines in supernatants of human PBMC were measured using human Cytokine/Chemokine Magnetic Bead Panel—Premixed 30 Plex, HCYTMAG-60K-PX30 (Millipore, Billerica, MA, USA) as recommended by the manufacturers.
Fig. 5 SP dependent up regulation of cytokine and chemokine production by human PBMC* is inhibited by aprepitant. *Freshly isolated PBMC from normal donors were incubated for 24 h with SP and/or Aprepitant (10 µM each) as indicated. Control cultures were either left untreated of incubated with DMSO (vehicle for aprepitant). Pro-inflammatory markers were measured in supernatants using MILLIPORE Human Cytokine/Chemokine Magnetic Bead Panel.

[5] = system: ATP-dependent K+ currents of mouse pancreatic B-cells; conditions: in the absence of albumin; Table 1, reference not given; read-out: concentration blocking currents half maximally; cited from earlier work
5-HT2A receptor = molecular target: 5-HT2A receptor; parameters: method as in PMID 23702798, PMID 25113527; conditions: partial agonist; cited from earlier work
serotonin reuptake = system: serotonin reuptake; parameters: method as in PMID 23702798, PMID 25113527; conditions: at 10 μM; cited from earlier work
HIV = conditions: Table 1, reference not given; cited from earlier work
[6] = system: vesicular monoamine transporter 2 (VMAT2); parameters: method as in PMID 23702798, PMID 25113527; conditions: at 10 μM; cited from earlier work
dopamine reuptake = system: dopamine reuptake; parameters: method as in PMID 23702798, PMID 25113527; conditions: at 10 μM; cited from earlier work
GABAA receptor = system: GABAA receptor; parameters: method as in PMID 23702798, PMID 25113527; conditions: cited from earlier work
5-HT2C receptor = system: 5-HT2C receptor; parameters: method as in PMID 23702798, PMID 25113527; conditions: cited from earlier work

## O=C1NC(=O)C(c2ccccc2)(c2ccccc2)N1 [Phenytoin]
[1]; in vivo
  clinically effective serum trough concentration: The clinically effective serum trough concentration is usually 40 to 80 µmol/L.

## NS(=O)(=O)c1cc(C(=O)O)c(NCc2ccco2)cc1Cl [Furosemide]
[2]
  PB %: Furosemide (91–99 %)

## CN1C(=O)CN=C(c2ccccc2)c2cc(Cl)ccc21 [Diazepam]
[2]
  PB %: Diazepam+ (98.5 %)
[1]; Table 1 footnote, no reference given
  target concentrations: < 1 µg/mL

## CCCC(CCC)C(=O)O [Valproic Acid]
[1]; in vivo
  therapeutic range (total): The therapeutic range for valproic acid (total) is 50–125 µg/mL

## substance P (RPKPQQFFGLM; ends and bridges not checked; UniProt P20366 58-68, looked up) [SP, substance P, ligand of its preferring receptor NK1R]
[3]
  release of sCD163: fast release
[4]; SP treated, 7 days, five experiments, control 14.7 (11.1)
  percentage of PD-1 positive CD4 cells, median (spread): 38.4 (60.6) %
[4]; incubation of PBMC with SP, 6–8 days, p = 0.03
  PD-1 expression by CD4 T-cells: increased PD-1 expression
Human PBMC
  production of G-CSF, IL-6, IL-8, TNFα and MIP-1α: upregulated
  production of MCP-1: increased production

## CCCCNC(=O)NS(=O)(=O)c1ccc(C)cc1 [Tolbutamide]
[5]
  IC50: 4.1 µM

## O=C1Nc2ccc(Cl)cc2[C@@](C#CC2CC2)(C(F)(F)F)O1 [Efavirenz]
5-HT2A receptor
  Ki: 2.2 µM
Serotonin reuptake
  serotonin reuptake inhibition: 50%
HIV
  Plasma concentrations that appear to suppress HIV replication: Plasma concentrations above 2 mg/L appear to suppress HIV replication
[6]
  VMAT2 inhibition: 60%
Dopamine reuptake
  dopamine reuptake inhibition: 75%
GABAA receptor
  action at GABAA receptor: positive allosteric modulator
5-HT2C receptor
  action at 5-HT2C receptor: ligand

## CCC[C@@H]1C[C@@H](C(=O)N[C@@H]([C@H]2O[C@H](SC)[C@H](O)[C@@H](O)[C@H]2O)[C@H](C)Cl)N(C)C1 [Clindamycin]
[2]
  PB %: Clindamycin (95 %)
